Results reported in patent publication US20140213446A1, “HERBICIDAL COMPOSITIONS AND METHODS USING COMBINATIONS OF 4-AMINO-3-CHLORO-6-(4-CHLORO-2-FLUORO-3-METHOXYPHENYL)PYRIDINE-2-CARBOXYLIC ACID OR A DERIVATIVE THEREOF AND AN ARYLOXYPHENOXY PROPIONATE ACCASE INHIBITOR HERBICIDE” (DOW AGROSCIENCES LLC, priority 2013, published 2014).
Values joined by “and” are separate entries in the source; they are usually repeats but may differ in a detail not shown here. Equal values may be shown once.

Key:
Experiment in all cases: Postemergent herbicidal activity, greenhouse
Type in all cases: in vivo
[1] = system: VIOTR Viola tricolor L. (wild violet)
Description: (§1) Evaluation of Postemergent Herbicidal Activity. Seeds or nutlets of the desired test plant species were planted in Sun Gro Metro-Mix® 360 planting mixture, which typically has a pH of 6.0 to 6.8 and an organic matter content of about 30 percent, in plastic pots with a surface area of 64 square centimeters (cm^2). When required to ensure good germination and healthy plants, a fungicide treatment and/or other chemical or physical treatment was applied. The plants were grown for 7-21 days (d) in a greenhouse with an approximate 15 hour (h) photoperiod which was maintained at about 23-29° C. during the day and 22-28° C. during the night. Nutrients and water were added on a regular basis and supplemental lighting was provided with overhead metal halide 1000-Watt lamps as necessary. The plants were employed for testing when they reached the first or second true leaf stage.
(§2) A weighed amount, determined by the highest rate to be tested, of each test compound was placed in a 25 milliliter (mL) glass vial and was dissolved in 4 mL of a 97:3 volume per volume (v/v) mixture of acetone and dimethyl sulfoxide (DMSO) to obtain concentrated stock solutions. […] The concentrated stock solutions obtained were diluted with 20 mL of an aqueous mixture containing acetone, water, isopropyl alcohol, DMSO, Atplus 411F crop oil concentrate, and Triton® X-155 surfactant in a 48.5:39:10:1.5:1.0:0.02 v/v ratio to obtain spray solutions containing the highest application rates. Additional application rates were obtained by serial dilution of 12 mL of the high rate solution into a solution containing 2 mL of a 97:3 v/v mixture of acetone and DMSO and 10 mL of an aqueous mixture containing acetone, water, isopropyl alcohol, DMSO, Atplus 411F crop oil concentrate, and Triton X-155 surfactant in a 48.5:39:10:1.5:1.0:0.02 v/v ratio to obtain ½X, ¼X, ⅛X and 1/16X rates of the high rate. Compound requirements are based upon a 12 mL application volume at a rate of 187 liters per hectare (L/ha). Formulated compounds were applied to the plant material with an overhead Mandel track sprayer equipped with 8002E nozzles calibrated to deliver 187 L/ha over an application area of 0.503 square meters (m^2) at a spray height of 18 inches ([…]) above the average plant canopy height. Control plants were sprayed in the same manner with the solvent blank.
(§3) Treatments consisted of the methyl ester of 4-amino-3-chloro-6-(4-chloro-2-fluoro-3-methoxyphenyl)pyridine-2-carboxylic acid (Cmpd 1) as technical grade material and fluazifop-P-butyl (Fusilade® DX), haloxyfop-P-methyl (GALLANT® super), and quizalofop-P-ethyl (Assure® II) alone and in combination. The form of compound of formula (I) and fluazifop-P-butyl, haloxyfop-P-methyl, and quizalofop-P-ethyl were applied on an acid equivalent basis.
(§4) The treated plants and control plants were placed in a greenhouse as described above and watered by subirrigation to prevent wash-off of the test compounds. After 14 d, the condition of the test plants as compared with that of the untreated plants was determined visually and scored on a scale of 0 to 100 percent where 0 corresponds to no injury and 100 corresponds to complete kill.
(§5) Results of testing mixtures in accordance with this disclosure and of the components of the mixtures separately against various common weeds in greenhouse trials are reported in the following tables. The reported values are of percent (%) control or percent (%) injury, visually rated. Colby's equation was used to determine the herbicidal effects expected from the mixtures (Colby, S. R. Calculation of the synergistic and antagonistic response of herbicide combinations. Weeds 1967, 15, 20-22.).
(§6) More specifically, the following equation was used to calculate the expected activity of mixtures containing two active ingredients, A and B:
(§7) A=observed efficacy of active ingredient A at the same concentration as used in the mixture; B=observed efficacy of active ingredient B at the same concentration as used in the mixture. […]

[2] = system: CYPES Cyperus esculentus L. (yellow nutsedge)
Description: as §1, §2, §3, §4, §5, §6, §7

[3] = system: STEME Stellaria media (L.) Vill. (common chickweed)
Description: as §1, §2, §3, §4, §5, §6, §7

[4] = system: BRSNW Brassica napus (winter oilseed rape)
Description: as §1, §2, §3, §4, §5, §6, §7

[5] = system: AMARE Amaranthus retroflexus L. (redroot pigweed)
Description: as §1, §2, §3, §4, §5, §6, §7

[6] = system: CHEAL Chenopodium album L. (common lambsquarters)
Description: as §1, §2, §3, §4, §5, §6, §7

[7] = system: IPOHE Ipomoea hederacea (L.) Jacq. (ivyleaf momingglory)
Description: as §1, §2, §3, §4, §5, §6, §7

[8] = system: SETFA Setaria faberi Herrm. (giant foxtail)
Description: as §1, §2, §3, §4, §5, §6, §7

[9] = system: CIRAR Cirsium arvense (L.) Scop. (Canada thistle)
Description: as §1, §2, §3, §4, §5, §6, §7

[10] = system: GLXMA Glycine max (soybean)
Description: as §1, §2, §3, §4, §5, §6, §7

[11] = system: HELAN Helianthus annuus L. (common sunflower)
Description: as §1, §2, §3, §4, §5, §6, §7

[12] = system: ABUTH Abutilon theophrasti Medik. (velvetleaf)
Description: as §1, §2, §3, §4, §5, §6, §7

[13] = system: DIGSA Digitaria sanguinalis (L.) Scop. (large crabgrass)
Description: as §1, §2, §3, §4, §5, §6, §7

[14] = system: AVEFA Avena fatua L. (wild oat)
Description: as §1, §2, §3, §4, §5, §6, §7

[15] = system: EPHHL Euphorbia heterophylla L. (wild poinsettia)
Description: as §1, §2, §3, §4, §5, §6, §7

[16] = system: SORVU Sorghum vulgare (common sorghum)
Description: as §1, §2, §3, §4, §5, §6, §7

For `COC(=O)[C@@H](C)Oc1ccc(Oc2ncc(C(F)(F)F)cc2Cl)cc1` [Haloxyfop-P, haloxyfop-P-methyl], the “Visual Growth Reduction (%) 14 DAA Obs” value ([1]; Haloxyfop-P 35 g ae/ha) was 0%, the “Visual Growth Reduction (%) 14 DAA Obs” value ([1]; Haloxyfop-P 70 g ae/ha) was 0% and the “Visual Growth Reduction (%) 14 DAA Obs” value ([1]; Haloxyfop-P 140 g ae/ha) was 0%. The “Visual Growth Reduction (%) 14 DAA Obs” value ([2]; Haloxyfop-P 35 g ae/ha) was 0%, the “Visual Growth Reduction (%) 14 DAA Obs” value ([2]; Haloxyfop-P 70 g ae/ha) was 0% and the “Visual Growth Reduction (%) 14 DAA Obs” value ([2]; Haloxyfop-P 140 g ae/ha) was 0%. For the same compound, the “Visual Growth Reduction (%) 14 DAA Obs” value ([3]; Haloxyfop-P 35 g ae/ha) was 0%, the “Visual Growth Reduction (%) 14 DAA Obs” value ([3]; Haloxyfop-P 70 g ae/ha) was 0% and the “Visual Growth Reduction (%) 14 DAA Obs” value ([3]; Haloxyfop-P 140 g ae/ha) was 0%. For the same compound, the “Visual Growth Reduction (%) 14 DAA Obs” value ([4]; Haloxyfop-P 35 g ae/ha) was 0%, the “Visual Growth Reduction (%) 14 DAA Obs” value ([4]; Haloxyfop-P 70 g ae/ha) was 0% and the “Visual Growth Reduction (%) 14 DAA Obs” value ([4]; Haloxyfop-P 140 g ae/ha) was 0%. The “Visual Growth Reduction (%) 14 DAA Obs” value ([5]; Haloxyfop-P 35 g ae/ha) was 0%, the “Visual Growth Reduction (%) 14 DAA Obs” value ([5]; Haloxyfop-P 70 g ae/ha) was 0% and the “Visual Growth Reduction (%) 14 DAA Obs” value ([5]; Haloxyfop-P 140 g ae/ha) was 0%. The “Visual Growth Reduction (%) 14 DAA Obs” value ([6]; Haloxyfop-P 35 g ae/ha) was 0%, the “Visual Growth Reduction (%) 14 DAA Obs” value ([6]; Haloxyfop-P 70 g ae/ha) was 0% and the “Visual Growth Reduction (%) 14 DAA Obs” value ([6]; Haloxyfop-P 140 g ae/ha) was 0%. For the same compound, the “Visual Growth Reduction (%) 14 DAA Obs” value ([7]; Haloxyfop-P 35 g ae/ha) was 0%, the “Visual Growth Reduction (%) 14 DAA Obs” value ([7]; Haloxyfop-P 70 g ae/ha) was 0% and the “Visual Growth Reduction (%) 14 DAA Obs” value ([7]; Haloxyfop-P 140 g ae/ha) was 0%.
In the case of `COC(=O)c1nc(-c2ccc(Cl)c(OC)c2F)cc(N)c1Cl` [Cmpd 1, methyl ester of 4-amino-3-chloro-6-(4-chloro-2-fluoro-3-methoxyphenyl)pyridine-2-carboxylic acid], the “Visual Growth Reduction (%) 14 DAA Obs” value ([8]; Cmpd 1 1.25 g ae/ha) is reported as 0%, the “Visual Growth Reduction (%) 14 DAA Obs” value ([8]; Cmpd 1 2.5 g ae/ha) is reported as 0% and the “Visual Growth Reduction (%) 14 DAA Obs” value ([8]; Cmpd 1 5 g ae/ha) is reported as 30%. The “Visual Growth Reduction (%) 14 DAA Obs” value ([9]; Cmpd 1 1.25 g ae/ha) was 30%, the “Visual Growth Reduction (%) 14 DAA Obs” value ([9]; Cmpd 1 2.5 g ae/ha) was 50% and 30% and the “Visual Growth Reduction (%) 14 DAA Obs” value ([9]; Cmpd 1 5 g ae/ha) was 30%. The “Visual Growth Reduction (%) 14 DAA Obs” value ([1]; Cmpd 1 1.25 g ae/ha) was 10%, the “Visual Growth Reduction (%) 14 DAA Obs” value ([1]; Cmpd 1 2.5 g ae/ha) was 10% and the “Visual Growth Reduction (%) 14 DAA Obs” value ([1]; Cmpd 1 5 g ae/ha) was 30%. For the same compound, the “Visual Growth Reduction (%) 14 DAA Obs” value ([10]; Cmpd 1 1.25 g ae/ha) was 70%, the “Visual Growth Reduction (%) 14 DAA Obs” value ([10]; Cmpd 1 2.5 g ae/ha) was 95% and the “Visual Growth Reduction (%) 14 DAA Obs” value ([10]; Cmpd 1 5 g ae/ha) was 97%. The “Visual Growth Reduction (%) 14 DAA Obs” value ([2]; Cmpd 1 1.25 g ae/ha) was 50%, the “Visual Growth Reduction (%) 14 DAA Obs” value ([2]; Cmpd 1 2.5 g ae/ha) was 90% and the “Visual Growth Reduction (%) 14 DAA Obs” value ([2]; Cmpd 1 5 g ae/ha) was 93%. For the same compound, the “Visual Growth Reduction (%) 14 DAA Obs” value ([11]; Cmpd 1 1.25 g ae/ha) was 20%, the “Visual Growth Reduction (%) 14 DAA Obs” value ([11]; Cmpd 1 2.5 g ae/ha) was 20% and the “Visual Growth Reduction (%) 14 DAA Obs” value ([11]; Cmpd 1 5 g ae/ha) was 40%. The “Visual Growth Reduction (%) 14 DAA Obs” value ([3]; Cmpd 1 1.25 g ae/ha) was 30%, the “Visual Growth Reduction (%) 14 DAA Obs” value ([3]; Cmpd 1 2.5 g ae/ha) was 20% and the “Visual Growth Reduction (%) 14 DAA Obs” value ([3]; Cmpd 1 5 g ae/ha) was 40%. The “Visual Growth Reduction (%) 14 DAA Obs” value ([4]; Cmpd 1 1.25 g ae/ha) was 0%, the “Visual Growth Reduction (%) 14 DAA Obs” value ([4]; Cmpd 1 2.5 g ae/ha) was 5% and the “Visual Growth Reduction (%) 14 DAA Obs” value ([4]; Cmpd 1 5 g ae/ha) was 20%. For the same compound, the “Visual Growth Reduction (%) 14 DAA Obs” value ([12]; Cmpd 1 1.25 g ae/ha) was 80%, the “Visual Growth Reduction (%) 14 DAA Obs” value ([12]; Cmpd 1 2.5 g ae/ha) was 85% and the “Visual Growth Reduction (%) 14 DAA Obs” value ([12]; Cmpd 1 5 g ae/ha) was 90%. The “Visual Growth Reduction (%) 14 DAA Obs” value ([13]; Cmpd 1 1.25 g ae/ha) was 0%, the “Visual Growth Reduction (%) 14 DAA Obs” value ([13]; Cmpd 1 2.5 g ae/ha) was 0% and the “Visual Growth Reduction (%) 14 DAA Obs” value ([13]; Cmpd 1 5 g ae/ha) was 0%. For the same compound, the “Visual Growth Reduction (%) 14 DAA Obs” value ([5]; Cmpd 1 1.25 g ae/ha) was 50%, the “Visual Growth Reduction (%) 14 DAA Obs” value ([5]; Cmpd 1 2.5 g ae/ha) was 60% and the “Visual Growth Reduction (%) 14 DAA Obs” value ([5]; Cmpd 1 5 g ae/ha) was 90%. The “Visual Growth Reduction (%) 14 DAA Obs” value ([14]; Cmpd 1 1.25 g ae/ha) was 0%, the “Visual Growth Reduction (%) 14 DAA Obs” value ([14]; Cmpd 1 2.5 g ae/ha) was 0% and the “Visual Growth Reduction (%) 14 DAA Obs” value ([14]; Cmpd 1 5 g ae/ha) was 0%. For the same compound, the “Visual Growth Reduction (%) 14 DAA Obs” value ([6]; Cmpd 1 1.25 g ae/ha) was 70%, the “Visual Growth Reduction (%) 14 DAA Obs” value ([6]; Cmpd 1 2.5 g ae/ha) was 80% and the “Visual Growth Reduction (%) 14 DAA Obs” value ([6]; Cmpd 1 5 g ae/ha) was 93%. For the same compound, the “Visual Growth Reduction (%) 14 DAA Obs” value ([15]; Cmpd 1 1.25 g ae/ha) was 95%, the “Visual Growth Reduction (%) 14 DAA Obs” value ([15]; Cmpd 1 2.5 g ae/ha) was 95% and the “Visual Growth Reduction (%) 14 DAA Obs” value ([15]; Cmpd 1 5 g ae/ha) was 95%. For the same compound, the “Visual Growth Reduction (%) 14 DAA Obs” value ([7]; Cmpd 1 1.25 g ae/ha) was 10%, the “Visual Growth Reduction (%) 14 DAA Obs” value ([7]; Cmpd 1 2.5 g ae/ha) was 20% and the “Visual Growth Reduction (%) 14 DAA Obs” value ([7]; Cmpd 1 5 g ae/ha) was 20%. For the same compound, the “Visual Growth Reduction (%) 14 DAA Obs” value ([16]; Cmpd 1 1.25 g ae/ha) was 0%, the “Visual Growth Reduction (%) 14 DAA Obs” value ([16]; Cmpd 1 2.5 g ae/ha) was 0% and the “Visual Growth Reduction (%) 14 DAA Obs” value ([16]; Cmpd 1 5 g ae/ha) was 0%.
